{
  "source": "patent US6180666A",
  "about": "“Use of gallic acid esters to increase bioavailability of orally administered pharmaceutical compounds” (priority 1999, dated 2001)",
  "key": {"CYP3A [1]": {"tested_on": "CYP3A", "test": "Inhibition of CYP3A-mediated metabolism of amiodarone, buspirone and nifedipine in human liver microsomes (Example 2)", "description": "(§1) Microsomal pellets were prepared from the homogenate using standard differential centrifugation procedures (Guengerich, Analysis and characterization of enzymes in Principles and Methods of Toxicology, A. W. Hayes (ed.), Raven Press, New York. pp. 777-814 (1989)) and were stored at -80° C. in Tris-acetate buffer, pH 7.4, containing 20% w/v glycerol. Microsomes were diluted in 100 mM potassium phosphate buffer, pH 7.4, for use in metabolic incubations. Microsomal protein and CYP content of the human liver microsomes were determined using methods of Bradford (Bradford, M. M. A rapid and sensitive method for the quantitation of microgram quantities of protein utilizing the principles of protein-dye binding. Anal. Biochem. 72:248-254 (1976)) and Omura and Sato (Omura, T. et. al. The carbon monoxide-binding pigment of liver microsomes II. Solubilization, purification and properties. J. Biol. Chem. 239:2370-2378 (1964)), respectively.\n(§2) The ability of propyl gallate at various concentrations to inhibit metabolism for three representative drugs through inhibition of the cytochrome P450 mechanism was tested. Human liver microsomes were prepared and each of three drugs, amiodarone, buspirone, or nifedipine, were incubated with the microsomes in the presence of propyl gallate or a known inhibitor of CYP3A metabolism. Metabolism in the presence of propyl gallate or known CYP3A inhibitor was compared to a control treated only with the solvent in which the inhibitor was dissolved.\n(§3) Clin. Pharmacol. Ther. 64: 655-60 (1998)) by human liver microsomes was tested. The microsomes were prepared as in Example 1.\n(§4) The amiodarone was present in a concentration of 100 μM, the buspirone was in a concentration of 25 μM, and the nifedipine was present in a concentration of 25 μM. The propyl gallate was tested with each of these drugs at concentrations of 25, 50, and 100 μM.\n(§5) The drug and optionally the inhibitor were preincubated with the microsomes at 1 nmol CYP/ml and 1 mM DETAPAC in 100 mM phosphate buffer, pH 7.4 for 5 minutes at 37° C. After the preincubation, metabolic reactions were started by the addition of 1 mM NADPH. Samples were taken at 1, 2, and 3 minutes after the start of the reaction and analyzed by HPLC. Disappearance of substrate and/or formation of metabolite were quantitated by comparison to standard curves.\n(§6) The metabolism rates (nmol/ml/min) are the mean±standard deviation of three measurements.\n(§7) ^a Formation rate of N-desethylamiodarone metabolite (nmol/ml/min)\n(§8) ^b Buspirone disappearance (nmol/ml/min)\n(§9) ^c Formation of nifedipine oxidation product\n(§10) 2,6-dimethyl-4-(2-nitrophenyl)-3,5-pyridinedicarboxylic acid, dimethyl"}, "CYP3A [2]": {"target": "T1, CYP3A (Homo sapiens, UniProt P08684)", "T1 sequence (P08684 2-503 limits assumed)": "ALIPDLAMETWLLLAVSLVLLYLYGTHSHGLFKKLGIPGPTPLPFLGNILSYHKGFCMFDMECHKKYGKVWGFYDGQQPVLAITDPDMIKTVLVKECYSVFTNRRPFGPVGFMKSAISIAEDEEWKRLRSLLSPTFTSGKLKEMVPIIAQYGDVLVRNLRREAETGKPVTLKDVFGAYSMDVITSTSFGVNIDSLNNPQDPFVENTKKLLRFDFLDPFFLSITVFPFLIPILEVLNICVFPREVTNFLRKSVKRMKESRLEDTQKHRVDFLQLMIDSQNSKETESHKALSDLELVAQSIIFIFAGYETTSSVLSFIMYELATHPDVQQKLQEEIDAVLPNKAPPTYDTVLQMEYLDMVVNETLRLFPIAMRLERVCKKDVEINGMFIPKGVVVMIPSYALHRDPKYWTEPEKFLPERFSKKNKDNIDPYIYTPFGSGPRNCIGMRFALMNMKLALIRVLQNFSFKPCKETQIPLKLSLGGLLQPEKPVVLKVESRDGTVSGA", "test": "Inhibition of CYP3A-mediated nifedipine metabolism in human liver microsomes by gallic acid esters (Example 1)", "conditions": "for activity at 10 µM / activity at 25 µM / activity at 50 µM / activity at 100 µM / activity at 500 µM: read-out: Relative Nifedipine Oxidation Rate (± S.D.)", "description": "The known CYP3A substrate nifedipine (Gonzalez, F. J., et al., Human P45OPCN1: sequence, chromosome localization, and direct evidence through cDNA expression that P45OPCN1 is nifedipine oxidase, DNA, 2:79-86 (1988)) was used as a test substrate for evaluating the potential of various gallic acid esters to inhibit CYP3A metabolism in a human liver microsome study.\nas §1\nIn the experiments, 100 μM nifedipine and either 5 μl of a solution of one of the gallic acid esters (at a concentration indicated in Table 1) or 5 μl of solvent alone (control) were preincubated along with 0.1 mg/ml of the human liver microsomal proteins and 1 mM diethylenetriarninepentaacetic acid (DETAPAC) in 100 mM phosphate buffer, pH 7.4, for 5 minutes at 37°0 C. Metabolic reactions were started by addition of reduced β-nicotinamide adenine dinucleotide phosphate (NADPH) to give a final concentration of 1 mM and a final volume of 0.5 ml. Metabolic reactions were stopped after 3 minutes by vortex mixing with 0.2 ml of an extraction solvent of (94:6) acetonitrile:glacial acetic acid. Protein was precipitated by centrifugation (3000 rpm×10 minutes) and supernatants were analyzed for nifedipine and its oxidation product 2,6-dimethyl-4-(2-nitrophenyl)-3,5-pyridinedicarboxylic acid dimethyl ester by High Performance Liquid Chromatography (HPLC).\nAll experiments were conducted in triplicate and compared to incubations carried out without NADPH or without substrate. The data are the mean±standard deviation of three measurements.\n^a Substrate and inhibitor were dissolved in acetonitrile except for\nlauryl gallate which required methanol as vehicle.\n^b Inhibition constant Ki determinations utilized 10, 20, 50 and\n100 μM nifedipine substrate concentrations and experiments were run in\nduplicate. Ki values were determined by regression analysis of rate\ndata using SigmaPlot V4.OS software (SPSS Inc., San Rafael, California)."}, "[3]": {"conditions": "Joint FAO/WHO Expert Committee, cited from earlier work; for temporary acceptable daily intake: 1/200 of no observed effect level, 90 day feeding studies in rats"}, "CYP3A [4]": {"target": "T1, CYP3A", "test": "Inhibition of CYP3A-mediated metabolism of amiodarone, buspirone and nifedipine in human liver microsomes (Example 2)", "description": "as §1, §2, §3, §4, §5, §6, §7, §8, §9, §10"}, "[5]": {"conditions": "inhibitor 100 μM, amiodarone 100 μM"}, "[6]": {"conditions": "read-out: Buspirone metabolism rate, % control"}, "[7]": {"conditions": "read-out: Nifedipine metabolism rate, % control"}},
  "note": "Like-named read-outs stand apart in the source and are kept apart here.",
  "data": [
    {"smiles": "CC[C@H]1OC(=O)[C@H](C)[C@@H](O[C@H]2C[C@@](C)(OC)[C@@H](O)[C@H](C)O2)[C@H](C)[C@@H](O[C@@H]2O[C@H](C)C[C@H](N(C)C)[C@H]2O)[C@](C)(O)C[C@@H](C)C(=O)[C@H](C)[C@@H](O)[C@]1(C)O", "note": "[Erythromycin, reference compound]", "values": [
      {"measurement": "Mean ± SD metabolism rate, amiodarone (formation rate of N-desethylamiodarone)", "setting": "CYP3A [1]; [5]", "value": "0.84 ± 0.07", "unit": "nmol/mL/min"}
    ]},
    {"smiles": "CC(=O)N1CCN(c2ccc(OCC3COC(Cn4ccnc4)(c4ccc(Cl)cc4Cl)O3)cc2)CC1", "note": "(centres unmarked) [Ketoconazole, reference compound]", "values": [
      {"measurement": "Amiodarone metabolism rate, % control", "setting": "CYP3A [1]; inhibitor 1 μM, amiodarone 100 μM", "value": 4, "unit": "% control"}
    ]},
    {"smiles": "CCCCCCCCCCCCOC(=O)c1cc(O)c(O)c(O)c1", "note": "[Lauryl gallate, lauryl gallate]", "values": [
      {"measurement": "activity at 10 µM", "setting": "CYP3A [2]", "value": 61, "unit": "%"},
      {"measurement": "activity at 25 µM", "setting": "CYP3A [2]", "value": 31, "unit": "%"},
      {"measurement": "activity at 50 µM", "setting": "CYP3A [2]", "value": 12.6, "unit": "%"},
      {"measurement": "activity at 100 µM", "setting": "CYP3A [2]", "value": 6.4, "unit": "%"},
      {"measurement": "temporary acceptable daily intake", "setting": "[3]", "value": "0-0.05 mg/kg body weight"}
    ]},
    {"smiles": "COC(=O)c1cc(O)c(O)c(O)c1", "note": "[Methyl gallate, methyl gallate]", "values": [
      {"measurement": "activity at 100 µM", "setting": "CYP3A [2]", "value": 53, "unit": "%"},
      {"measurement": "activity at 500 µM", "setting": "CYP3A [2]", "value": 16, "unit": "%"}
    ]},
    {"smiles": "CCCCCCCCOC(=O)c1cc(O)c(O)c(O)c1", "note": "[Octyl gallate, octyl gallate]", "values": [
      {"measurement": "Inhibition of CYP3A-mediated metabolism (in words)", "setting": "CYP3A [2]", "value": "especially good inhibitor of the metabolism at relatively low concentrations"},
      {"measurement": "Ki", "setting": "CYP3A [2]", "value": "5.2 ± 0.2", "unit": "µM"},
      {"measurement": "activity at 10 µM", "setting": "CYP3A [2]", "value": 44, "unit": "%"},
      {"measurement": "activity at 25 µM", "setting": "CYP3A [2]", "value": 17.5, "unit": "%"},
      {"measurement": "activity at 50 µM", "setting": "CYP3A [2]", "value": 4.9, "unit": "%"},
      {"measurement": "activity at 100 µM", "setting": "CYP3A [2]", "value": 1.1, "unit": "%"},
      {"measurement": "temporary acceptable daily intake", "setting": "[3]", "value": "0-0.1 mg/kg body weight"}
    ]},
    {"smiles": "CCCOC(=O)c1cc(O)c(O)c(O)c1", "note": "[Propyl gallate, 3,4,5-trihydroxybenzoic acid, n-propyl ester]", "values": [
      {"measurement": "Ki", "setting": "CYP3A [2]", "value": "64 ± 2", "unit": "µM"},
      {"measurement": "activity at 50 µM", "setting": "CYP3A [2]", "value": 59, "unit": "%"},
      {"measurement": "activity at 100 µM", "setting": "CYP3A [2]", "value": 34, "unit": "%"},
      {"measurement": "activity at 500 µM", "setting": "CYP3A [2]", "value": 6.1, "unit": "%"},
      {"measurement": "acceptable daily intake", "setting": "[3]; 1/100 of no observed effect level, 90 day feeding study in rats", "value": "0 to 1.4", "unit": "mg/kg/day"},
      {"measurement": "remaining activity at 25 µM", "setting": "CYP3A [4]; [6]", "value": 65, "unit": "%"},
      {"measurement": "remaining activity at 50 µM", "setting": "CYP3A [4]; [6]", "value": 42, "unit": "%"},
      {"measurement": "remaining activity at 100 µM", "setting": "CYP3A [4]; [6]", "value": 29, "unit": "%"},
      {"measurement": "remaining activity at 25 µM", "setting": "CYP3A [4]; [7]", "value": 82, "unit": "%"},
      {"measurement": "remaining activity at 50 µM", "setting": "CYP3A [4]; [7]", "value": 54, "unit": "%"},
      {"measurement": "remaining activity at 100 µM", "setting": "CYP3A [4]; [7]", "value": 33, "unit": "%"},
      {"measurement": "Inhibition of CYP3A-mediated metabolism (in words)", "setting": "CYP3A [1]", "value": "effective inhibitor of CYP3A-mediated metabolism"},
      {"measurement": "Inhibition of drug metabolism compared with known CYP3A inhibitors (in words)", "setting": "CYP3A [1]", "value": "better at inhibiting drug metabolism than the established CYP3A inhibitors diltiazem, erythromycin, and verapamil"},
      {"measurement": "Mean ± SD metabolism rate, amiodarone (formation rate of N-desethylamiodarone)", "setting": "CYP3A [1]; inhibitor 25 μM, amiodarone 100 μM", "value": "0.94 ± 0.02", "unit": "nmol/mL/min"},
      {"measurement": "Mean ± SD metabolism rate, amiodarone (formation rate of N-desethylamiodarone)", "setting": "CYP3A [1]; inhibitor 50 μM, amiodarone 100 μM", "value": "0.55 ± 0.02", "unit": "nmol/mL/min"},
      {"measurement": "Mean ± SD metabolism rate, amiodarone (formation rate of N-desethylamiodarone)", "setting": "CYP3A [1]; [5]", "value": "0.32 ± 0.03", "unit": "nmol/mL/min"},
      {"measurement": "Amiodarone metabolism rate, % control", "setting": "CYP3A [1]; microsomes, 25 µM", "value": 49, "unit": "% control"},
      {"measurement": "Amiodarone metabolism rate, % control", "setting": "CYP3A [1]; microsomes, 50 µM", "value": 28, "unit": "% control"},
      {"measurement": "Amiodarone metabolism rate, % control", "setting": "CYP3A [1]; microsomes, 100 µM", "value": 17, "unit": "% control"}
    ]}
  ]
}
